In paper PMC10817531, “Chlorinated Enyne Fatty Acid Amides from a Marine Cyanobacterium: Discovery of Taveuniamides L-M and Pharmacological Characterization of Taveuniamide F as a GPCR Antagonist with CNR1 Selectivity” (Marine Drugs, 2023):

Columns and labels:
Assay in all cases: PathHunter β-arrestin GpcrMAX assay
Assay type in all cases: cell-based
[1] = molecular target: T1, PPYR1 (Homo sapiens, UniProt P50391)
T1 construct: purchased DiscoveRx (Eurofins) gpcrMAX PathHunter β-arrestin panel
Experimental: (§1) GpcrMAX panel biosensor assays were used to characterize taveuniamide F (4, 20 µM) (agonist and antagonist mode). The experiments were carried out by DiscoveRx Corporation (Fremont, CA, USA) as described before, using PathHunter β-arrestin enzyme fragment complementation (EFC) technology.

[2] = molecular target: T2, PROKR1 (Homo sapiens, UniProt Q8TCW9)
T2 construct: purchased DiscoveRx (Eurofins) gpcrMAX PathHunter β-arrestin panel
Experimental: as §1

[3] = molecular target: T3, ADRA2A (Homo sapiens, UniProt P08913)
T3 construct: purchased DiscoveRx (Eurofins) gpcrMAX PathHunter β-arrestin panel
Experimental: as §1

[4] = molecular target: T4, HTR1F (Homo sapiens, UniProt P30939)
T4 construct: purchased DiscoveRx (Eurofins) gpcrMAX PathHunter β-arrestin panel
Experimental: as §1

[5] = molecular target: CALCRL-RAMP1 (Homo sapiens, UniProt O60894+Q16602)
Experimental: as §1

[6] = molecular target: T5, CCR2 (Homo sapiens, UniProt P41597)
T5 construct: purchased DiscoveRx (Eurofins) gpcrMAX PathHunter β-arrestin panel
Experimental: as §1

[7] = molecular target: T6, ADRB1 (Homo sapiens, UniProt P08588)
T6 construct: purchased DiscoveRx (Eurofins) gpcrMAX PathHunter β-arrestin panel
Experimental: as §1

[8] = molecular target: T7, CCR10 (Homo sapiens, UniProt P46092)
T7 construct: purchased DiscoveRx (Eurofins) gpcrMAX PathHunter β-arrestin panel
Experimental: as §1

[9] = molecular target: T8, DRD2S (Homo sapiens, UniProt P14416)
T8 construct: purchased DiscoveRx (Eurofins) gpcrMAX PathHunter β-arrestin panel
Experimental: as §1

[10] = molecular target: T9, GPR109B (Homo sapiens, UniProt P49019)
T9 construct: purchased DiscoveRx (Eurofins) gpcrMAX PathHunter β-arrestin panel
Experimental: as §1

[11] = molecular target: T10, MC4R (Homo sapiens, UniProt P32245)
T10 construct: purchased DiscoveRx (Eurofins) gpcrMAX PathHunter β-arrestin panel
Experimental: as §1

[12] = molecular target: T11, PTGFR (Homo sapiens, UniProt P43088)
T11 construct: purchased DiscoveRx (Eurofins) gpcrMAX PathHunter β-arrestin panel
Experimental: as §1

[13] = molecular target: T12, P2RY4 (Homo sapiens, UniProt P51582)
T12 construct: purchased DiscoveRx (Eurofins) gpcrMAX PathHunter β-arrestin panel
Experimental: as §1

[14] = molecular target: T13, MC5R (Homo sapiens, UniProt P33032)
T13 construct: purchased DiscoveRx (Eurofins) gpcrMAX PathHunter β-arrestin panel
Experimental: as §1

[15] = molecular target: T14, VIPR2 (Homo sapiens, UniProt P41587)
T14 construct: purchased DiscoveRx (Eurofins) gpcrMAX PathHunter β-arrestin panel
Experimental: as §1

[16] = molecular target: T15, CX3CR1 (Homo sapiens, UniProt P49238)
T15 construct: purchased DiscoveRx (Eurofins) gpcrMAX PathHunter β-arrestin panel
Experimental: as §1

[17] = molecular target: T16, HTR1E (Homo sapiens, UniProt P28566)
T16 construct: purchased DiscoveRx (Eurofins) gpcrMAX PathHunter β-arrestin panel
Experimental: as §1

[18] = molecular target: T17, MRGPRX2 (Homo sapiens, UniProt Q96LB1)
T17 construct: purchased DiscoveRx (Eurofins) gpcrMAX PathHunter β-arrestin panel
Experimental: as §1

[19] = molecular target: T18, EDG7 (Homo sapiens, UniProt Q9UBY5)
T18 construct: purchased DiscoveRx (Eurofins) gpcrMAX PathHunter β-arrestin panel
Experimental: as §1

[20] = molecular target: T19, PTGIR (Homo sapiens, UniProt P43119)
T19 construct: purchased DiscoveRx (Eurofins) gpcrMAX PathHunter β-arrestin panel
Experimental: as §1

[21] = molecular target: T20, SSTR2 (Homo sapiens, UniProt P30874)
T20 construct: purchased DiscoveRx (Eurofins) gpcrMAX PathHunter β-arrestin panel
Experimental: as §1

[22] = molecular target: T21, NMU1R (Homo sapiens, UniProt Q9HB89)
T21 construct: purchased DiscoveRx (Eurofins) gpcrMAX PathHunter β-arrestin panel
Experimental: as §1

[23] = molecular target: T22, CXCR5 (Homo sapiens, UniProt P32302)
T22 construct: purchased DiscoveRx (Eurofins) gpcrMAX PathHunter β-arrestin panel
Experimental: as §1

[24] = molecular target: T23, GIPR (Homo sapiens, UniProt P48546)
T23 construct: purchased DiscoveRx (Eurofins) gpcrMAX PathHunter β-arrestin panel
Experimental: as §1

[25] = molecular target: T24, TACR3 (Homo sapiens, UniProt P29371)
T24 construct: purchased DiscoveRx (Eurofins) gpcrMAX PathHunter β-arrestin panel
Experimental: as §1

[26] = molecular target: T25, HRH2 (Homo sapiens, UniProt P25021)
T25 construct: purchased DiscoveRx (Eurofins) gpcrMAX PathHunter β-arrestin panel
Experimental: as §1

[27] = molecular target: CALCRL-RAMP2 (Homo sapiens, UniProt O60895+Q16602)
Experimental: as §1

[28] = molecular target: T26, HTR5A (Homo sapiens, UniProt P47898)
T26 construct: purchased DiscoveRx (Eurofins) gpcrMAX PathHunter β-arrestin panel
Experimental: as §1

[29] = molecular target: T27, GPR35 (Homo sapiens, UniProt Q9HC97)
T27 construct: purchased DiscoveRx (Eurofins) gpcrMAX PathHunter β-arrestin panel
Experimental: as §1

[30] = molecular target: T28, LTB4R (Homo sapiens, UniProt Q15722)
T28 construct: purchased DiscoveRx (Eurofins) gpcrMAX PathHunter β-arrestin panel
Experimental: as §1

[31] = molecular target: T29, GRPR (Homo sapiens, UniProt P30550)
T29 construct: purchased DiscoveRx (Eurofins) gpcrMAX PathHunter β-arrestin panel
Experimental: as §1

[32] = molecular target: T30, FPR1 (Homo sapiens, UniProt P21462)
T30 construct: purchased DiscoveRx (Eurofins) gpcrMAX PathHunter β-arrestin panel
Experimental: as §1

[33] = molecular target: T31, OXTR (Homo sapiens, UniProt P30559)
T31 construct: purchased DiscoveRx (Eurofins) gpcrMAX PathHunter β-arrestin panel
Experimental: as §1

[34] = molecular target: T32, HCRTR2 (Homo sapiens, UniProt O43614)
T32 construct: purchased DiscoveRx (Eurofins) gpcrMAX PathHunter β-arrestin panel
Experimental: as §1

[35] = molecular target: BDKRB1 (Homo sapiens, UniProt P46663)
Experimental: as §1

[36] = molecular target: T33, NPY2R (Homo sapiens, UniProt P49146)
T33 construct: purchased DiscoveRx (Eurofins) gpcrMAX PathHunter β-arrestin panel
Experimental: as §1

[37] = molecular target: T34, CCKAR (Homo sapiens, UniProt P32238)
T34 construct: purchased DiscoveRx (Eurofins) gpcrMAX PathHunter β-arrestin panel
Experimental: as §1

[38] = molecular target: T35, MC1R (Homo sapiens, UniProt Q01726)
T35 construct: purchased DiscoveRx (Eurofins) gpcrMAX PathHunter β-arrestin panel
Experimental: as §1

[39] = molecular target: T36, MTNR1A (Homo sapiens, UniProt P48039)
T36 construct: purchased DiscoveRx (Eurofins) gpcrMAX PathHunter β-arrestin panel
Experimental: as §1

[40] = molecular target: T37, FPRL1 (Homo sapiens, UniProt P25090)
T37 construct: purchased DiscoveRx (Eurofins) gpcrMAX PathHunter β-arrestin panel
Experimental: as §1

[41] = molecular target: T38, P2RY2 (Homo sapiens, UniProt P41231)
T38 construct: purchased DiscoveRx (Eurofins) gpcrMAX PathHunter β-arrestin panel
Experimental: as §1

[42] = molecular target: T39, CCR3 (Homo sapiens, UniProt P51677)
T39 construct: purchased DiscoveRx (Eurofins) gpcrMAX PathHunter β-arrestin panel
Experimental: as §1

[43] = molecular target: T40, P2RY11 (Homo sapiens, UniProt Q96G91)
T40 construct: purchased DiscoveRx (Eurofins) gpcrMAX PathHunter β-arrestin panel
Experimental: as §1

T9 sequence (P49019 whole entry): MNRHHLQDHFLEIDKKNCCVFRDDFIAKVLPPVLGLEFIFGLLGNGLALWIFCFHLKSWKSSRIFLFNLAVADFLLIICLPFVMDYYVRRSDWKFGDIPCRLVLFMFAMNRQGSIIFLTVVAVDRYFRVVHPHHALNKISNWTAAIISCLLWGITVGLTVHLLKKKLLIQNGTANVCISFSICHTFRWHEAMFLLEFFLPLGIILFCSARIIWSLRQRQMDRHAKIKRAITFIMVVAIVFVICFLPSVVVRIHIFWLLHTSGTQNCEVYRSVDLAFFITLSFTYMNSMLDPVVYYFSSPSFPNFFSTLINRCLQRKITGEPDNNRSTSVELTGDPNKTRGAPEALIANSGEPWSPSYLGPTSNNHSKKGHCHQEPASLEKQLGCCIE
T5 sequence (P41597 whole entry): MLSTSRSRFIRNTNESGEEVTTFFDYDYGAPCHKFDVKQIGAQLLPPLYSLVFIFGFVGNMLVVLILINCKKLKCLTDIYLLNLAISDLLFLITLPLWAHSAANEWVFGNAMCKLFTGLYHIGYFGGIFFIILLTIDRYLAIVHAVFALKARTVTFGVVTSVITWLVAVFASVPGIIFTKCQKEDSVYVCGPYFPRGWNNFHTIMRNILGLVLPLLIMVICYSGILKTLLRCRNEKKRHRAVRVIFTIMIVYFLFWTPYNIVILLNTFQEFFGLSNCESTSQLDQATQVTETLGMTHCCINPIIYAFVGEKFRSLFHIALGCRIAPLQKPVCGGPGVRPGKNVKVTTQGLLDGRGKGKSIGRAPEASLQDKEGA
Sequence of BDKRB1 (P46663 whole entry): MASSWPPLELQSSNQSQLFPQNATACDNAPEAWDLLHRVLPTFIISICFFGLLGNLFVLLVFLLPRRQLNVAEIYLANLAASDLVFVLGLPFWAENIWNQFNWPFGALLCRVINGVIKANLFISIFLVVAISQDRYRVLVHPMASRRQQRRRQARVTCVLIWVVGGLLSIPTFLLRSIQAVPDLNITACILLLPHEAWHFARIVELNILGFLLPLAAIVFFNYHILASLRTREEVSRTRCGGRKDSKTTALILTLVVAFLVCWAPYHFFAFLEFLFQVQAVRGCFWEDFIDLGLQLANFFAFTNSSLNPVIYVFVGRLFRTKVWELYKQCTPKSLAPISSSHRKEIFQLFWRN
T38 sequence (P41231 whole entry): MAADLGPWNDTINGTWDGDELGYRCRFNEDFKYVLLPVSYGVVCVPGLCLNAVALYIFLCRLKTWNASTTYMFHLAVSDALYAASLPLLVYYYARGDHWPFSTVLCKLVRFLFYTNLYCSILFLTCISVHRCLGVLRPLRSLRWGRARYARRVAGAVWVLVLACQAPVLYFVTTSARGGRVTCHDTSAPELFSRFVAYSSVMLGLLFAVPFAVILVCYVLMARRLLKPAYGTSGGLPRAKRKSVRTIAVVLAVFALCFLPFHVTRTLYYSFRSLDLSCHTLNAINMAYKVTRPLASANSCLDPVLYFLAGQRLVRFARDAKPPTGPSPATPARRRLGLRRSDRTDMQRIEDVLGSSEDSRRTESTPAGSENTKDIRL
T32 sequence (O43614 whole entry): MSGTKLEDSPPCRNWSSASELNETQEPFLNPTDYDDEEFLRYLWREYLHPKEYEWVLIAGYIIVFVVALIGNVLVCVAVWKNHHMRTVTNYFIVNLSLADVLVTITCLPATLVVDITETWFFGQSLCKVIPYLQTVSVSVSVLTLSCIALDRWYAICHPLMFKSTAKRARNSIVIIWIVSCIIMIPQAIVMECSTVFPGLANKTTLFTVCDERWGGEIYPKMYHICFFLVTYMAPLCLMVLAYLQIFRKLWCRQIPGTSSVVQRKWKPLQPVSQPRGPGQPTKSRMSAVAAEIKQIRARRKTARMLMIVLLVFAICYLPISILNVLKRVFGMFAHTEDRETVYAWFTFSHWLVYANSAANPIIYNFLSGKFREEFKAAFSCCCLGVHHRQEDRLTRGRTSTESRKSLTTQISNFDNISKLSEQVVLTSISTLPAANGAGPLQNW
T6 sequence (P08588 whole entry): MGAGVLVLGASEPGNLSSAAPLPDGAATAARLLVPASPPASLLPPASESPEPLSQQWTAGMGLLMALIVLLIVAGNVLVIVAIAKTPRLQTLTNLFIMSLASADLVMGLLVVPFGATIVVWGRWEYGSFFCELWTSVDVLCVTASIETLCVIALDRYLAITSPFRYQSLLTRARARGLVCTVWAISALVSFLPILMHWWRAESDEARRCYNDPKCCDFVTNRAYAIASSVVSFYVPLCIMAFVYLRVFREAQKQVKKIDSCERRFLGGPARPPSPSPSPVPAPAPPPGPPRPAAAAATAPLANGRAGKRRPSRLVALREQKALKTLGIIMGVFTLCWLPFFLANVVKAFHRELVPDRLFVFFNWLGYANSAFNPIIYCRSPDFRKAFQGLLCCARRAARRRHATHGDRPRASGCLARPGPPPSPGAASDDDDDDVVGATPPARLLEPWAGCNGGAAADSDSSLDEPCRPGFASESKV
T27 sequence (Q9HC97 whole entry): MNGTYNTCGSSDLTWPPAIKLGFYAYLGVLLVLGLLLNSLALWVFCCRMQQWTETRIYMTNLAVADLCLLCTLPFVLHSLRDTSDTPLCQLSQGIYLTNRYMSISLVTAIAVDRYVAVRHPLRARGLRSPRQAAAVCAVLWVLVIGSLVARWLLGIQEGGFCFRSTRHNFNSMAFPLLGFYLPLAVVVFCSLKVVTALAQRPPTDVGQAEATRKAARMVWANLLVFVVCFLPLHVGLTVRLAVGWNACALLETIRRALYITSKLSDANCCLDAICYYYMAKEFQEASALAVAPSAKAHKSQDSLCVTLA
T18 sequence (Q9UBY5 whole entry): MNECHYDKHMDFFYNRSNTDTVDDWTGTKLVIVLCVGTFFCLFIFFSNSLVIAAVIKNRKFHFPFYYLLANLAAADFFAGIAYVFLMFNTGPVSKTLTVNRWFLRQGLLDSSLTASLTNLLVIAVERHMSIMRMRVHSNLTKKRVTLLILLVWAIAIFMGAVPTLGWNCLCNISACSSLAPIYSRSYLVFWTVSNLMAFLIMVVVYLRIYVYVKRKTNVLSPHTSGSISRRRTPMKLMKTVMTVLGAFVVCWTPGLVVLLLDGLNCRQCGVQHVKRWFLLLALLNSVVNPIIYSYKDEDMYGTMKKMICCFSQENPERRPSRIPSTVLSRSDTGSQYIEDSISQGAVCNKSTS
Sequence of CALCRL-RAMP1 (Q16602 23-461): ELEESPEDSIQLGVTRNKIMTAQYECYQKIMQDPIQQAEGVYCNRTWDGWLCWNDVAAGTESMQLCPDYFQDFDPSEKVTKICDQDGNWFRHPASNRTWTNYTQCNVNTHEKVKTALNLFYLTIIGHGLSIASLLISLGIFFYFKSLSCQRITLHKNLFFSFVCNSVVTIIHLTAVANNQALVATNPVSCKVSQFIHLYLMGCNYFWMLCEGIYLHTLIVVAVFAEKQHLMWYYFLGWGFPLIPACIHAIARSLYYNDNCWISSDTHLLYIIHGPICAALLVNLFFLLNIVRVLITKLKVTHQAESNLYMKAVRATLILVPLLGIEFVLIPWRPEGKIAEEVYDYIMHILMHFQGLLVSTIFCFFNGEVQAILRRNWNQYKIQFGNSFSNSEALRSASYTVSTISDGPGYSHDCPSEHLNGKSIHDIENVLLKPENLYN
Sequence of CALCRL-RAMP1 (O60894 27-148 partner): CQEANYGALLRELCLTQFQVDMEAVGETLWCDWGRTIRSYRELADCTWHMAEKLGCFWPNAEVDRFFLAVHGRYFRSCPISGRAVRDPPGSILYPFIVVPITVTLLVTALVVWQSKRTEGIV
Sequence of CALCRL-RAMP2 (Q16602 23-461): as the sequence (Q16602 23-461) above
Sequence of CALCRL-RAMP2 (O60895 43-175 partner): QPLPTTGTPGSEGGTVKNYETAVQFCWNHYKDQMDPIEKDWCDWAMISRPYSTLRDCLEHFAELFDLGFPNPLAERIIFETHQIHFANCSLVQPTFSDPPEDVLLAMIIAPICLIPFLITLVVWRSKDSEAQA
T14 sequence (P41587 24-438): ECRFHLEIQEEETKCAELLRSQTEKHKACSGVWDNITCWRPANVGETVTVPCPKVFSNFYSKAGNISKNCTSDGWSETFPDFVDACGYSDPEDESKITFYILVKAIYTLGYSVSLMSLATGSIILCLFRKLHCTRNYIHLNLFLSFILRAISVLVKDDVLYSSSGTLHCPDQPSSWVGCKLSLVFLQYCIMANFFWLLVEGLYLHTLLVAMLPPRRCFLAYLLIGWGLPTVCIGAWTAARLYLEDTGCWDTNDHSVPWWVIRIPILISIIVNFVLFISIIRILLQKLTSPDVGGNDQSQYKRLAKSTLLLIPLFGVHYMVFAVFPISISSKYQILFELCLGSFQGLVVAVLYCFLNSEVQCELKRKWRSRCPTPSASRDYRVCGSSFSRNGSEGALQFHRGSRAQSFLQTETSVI
T22 sequence (P32302 whole entry): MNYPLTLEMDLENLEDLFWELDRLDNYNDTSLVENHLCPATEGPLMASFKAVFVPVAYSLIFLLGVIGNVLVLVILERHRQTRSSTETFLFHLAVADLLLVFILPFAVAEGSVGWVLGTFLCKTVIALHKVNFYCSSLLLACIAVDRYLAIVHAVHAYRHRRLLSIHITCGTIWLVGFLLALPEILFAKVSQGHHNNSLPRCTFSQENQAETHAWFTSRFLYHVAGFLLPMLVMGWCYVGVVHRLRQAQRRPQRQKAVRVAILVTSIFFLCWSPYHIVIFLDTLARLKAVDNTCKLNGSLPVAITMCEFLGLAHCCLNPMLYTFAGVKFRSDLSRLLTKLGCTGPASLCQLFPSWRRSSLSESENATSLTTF

inhibition at 20 µM [1]: 50.7% | inhibition at 20 µM [2]: 37.6% | inhibition at 20 µM [3]: 42.3% | inhibition at 20 µM [4]: 41.7% | inhibition at 20 µM [5]: 31.2% | inhibition at 20 µM [6]: -1.7% | inhibition at 20 µM [7]: 52.7% | inhibition at 20 µM [8]: 33.3% | inhibition at 20 µM [9]: -8.1% | inhibition at 20 µM [10]: 36.1% | inhibition at 20 µM [11]: 49.1% | inhibition at 20 µM [12]: 43.1% | inhibition at 20 µM [13]: 68.8% | inhibition at 20 µM [14]: 39.8% | inhibition at 20 µM [15]: 4.6% | inhibition at 20 µM [16]: 35.6% | inhibition at 20 µM [17]: 26.8% | inhibition at 20 µM [18]: 64.7% | inhibition at 20 µM [19]: 38.6% | inhibition at 20 µM [20]: 60.2% | inhibition at 20 µM [21]: -0.1% | inhibition at 20 µM [22]: 30.1% | inhibition at 20 µM [23]: 5.1% | inhibition at 20 µM [24]: 23.3% | inhibition at 20 µM [25]: 15.2% | inhibition at 20 µM [26]: 24.1% | inhibition at 20 µM [27]: 13.6% | inhibition at 20 µM [28]: 45.6% | inhibition at 20 µM [29]: 27.1% | inhibition at 20 µM [30]: 4.6% | inhibition at 20 µM [31]: 6.2% | inhibition at 20 µM [32]: -4.7% | inhibition at 20 µM [33]: 34.2% | inhibition at 20 µM [34]: 11.6% | inhibition at 20 µM [35]: 26.2% | inhibition at 20 µM [36]: 0.5% | inhibition at 20 µM [37]: 10.9% | inhibition at 20 µM [38]: 10.2% | inhibition at 20 µM [39]: 20.2% | inhibition at 20 µM [40]: 2.5% | inhibition at 20 µM [41]: -1.1% | inhibition at 20 µM [42]: 19.2% | inhibition at 20 µM [43]: 8.2%
Compound: CC(=O)N[C@@H](CCCC#C/C=C/Cl)CCCCCCC(Cl)Cl [Compound 4, taveuniamide F]
